Laboratory results taken from patent US20070259966A1, “Coadministration of Radiation, Efaproxiral Sodium, and Supplemental Oxygen for the Treatment of Cancer” (ALLOS THERAPEUTICS, INC., priority 2004, published 2007).

Columns and labels:
[1] = tested on: patients with brain metastases; assay: Safety / treatment-emergent adverse events in the controlled study; format: in vivo, human
Experimental: Depending upon an individual patient's resaturation time (time required to recover to a stable ≧90% SpO2 on room air) following efaproxiral sodium plus WBRT, supplemental oxygen use may be required for as little as 30 minutes to more than 4 hours. […] During this period of decreased oxygen saturation, patients require continuous SpO2 monitoring. If the desired SpO2 of ≧90% while breathing room air is not achieved, supplemental oxygen is to be continued and increased to a flow of 6-8 L/min, if necessary, until the SpO2 while breathing room air is stabilized at ≧90%.
Patients with brain metastases were administered efaproxiral sodium in a total dose of 0-100 mg/kg per day based on the dosing guidelines detailed above. In general, efaproxiral sodium is administered by intravenous infusion through a central venous access device over 30 minutes at a dose of 75 or 100 mg/kg daily with concurrent supplemental oxygen. Oxygen must be administered at 4 L/min via nasal cannula or facemask beginning 5 minutes prior to initiation of infusion, during infusion and WBRT, and for at least 15 minutes after completion of daily WBRT. Efaproxiral sodium is administered every day of a fractionated course of WBRT. Except when contraindicated, WBRT must be administered within 30 minutes of the end of the efaproxiral sodium infusion.
The patients were given the drug in one dose. Efaproxiral sodium was administered via central venous access with flow rate controlled by volumetric pump over a 30-45 minute interval with end-infusion no longer than 30 minutes prior to each radiation dose of a 10-day course of WBRT. Efaproxiral sodium was formulated as a sterile solution for injection and was supplied in single-use glass bottles containing 10 g efaproxiral sodium in 500 mL of 0.225% NaCl at a concentration of 20 mg/mL. Efaproxiral sodium was administered during the 10-day course of WBRT, for a maximum of 10 doses. A control group received radiation and supplemental oxygen only.
The majority of treatment-emergent adverse events were Grade 1 or 2 in severity, resolved spontaneously or within the duration of the study, and responded well to concomitant treatment with antiemetics for nausea/vomiting, nonsteroidal anti-inflammatory drugs for headache, supplemental oxygen for hypoxemia. […] Muscle weakness and dyspnea (reported in 3% of patients) were the most commonly reported Grade 3 adverse events in Control patients and both events were reported as a Grade 4 event in 1 patient each. The most commonly reported Grade 4 adverse event in both treatment and control groups was disease progression (reported in 6% of both groups).

[2] = tested on: patients with brain metastases; assay: Quality of life: Spitzer Questionnaire (SQ); format: in vivo, human
Experimental: (§1) C. Quality of Life. Quality of life was determined by means of the Spitzer Questionnaire (SQ) and Karnofsky Performance Status (KPS) assessment. The tests were performed at baseline, at WBRT day 10, and at all routine follow-up visits. A sustained drop in the KPS score to less than 60 was defined as a significant drop. The 5 questions comprising the Spitzer Questionnaire were weighted evenly. For each evaluation with at least 3 out of 5 questions answered, an average score was computed for each patient. Questionnaires with fewer than 3 questions answered were treated as missing data. The protocol specified a sustained drop in the Spitzer Questionnaire score of 2 points constituted a significant drop.

hemoglobin = target: T1, hemoglobin (Homo sapiens, UniProt P68871+P69905); assay: Predicted p50 shift from RBC concentration; format: in vivo; settings: at RBC concentration >483 μg/ml
T1 construct: endogenous in cells; host or cells: red blood cells of treated patients (in vivo)
T1 sequence (P69905 2-142 limits assumed): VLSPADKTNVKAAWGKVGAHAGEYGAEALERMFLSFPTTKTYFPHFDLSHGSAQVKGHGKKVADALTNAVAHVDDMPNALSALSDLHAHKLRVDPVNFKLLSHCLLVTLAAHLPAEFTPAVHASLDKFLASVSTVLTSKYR
T1 sequence (P68871 2-147 limits assumed): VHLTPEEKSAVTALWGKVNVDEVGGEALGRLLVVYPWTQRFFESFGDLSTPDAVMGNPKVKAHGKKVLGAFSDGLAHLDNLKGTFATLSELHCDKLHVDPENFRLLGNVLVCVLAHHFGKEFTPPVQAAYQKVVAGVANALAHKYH
Experimental: Sometimes, efaproxiral sodium is represented by the name 2-[4-[2-[(3,5-dimethylphenyl)amino]-2-oxoethyl]phenoxy]-2-methylpropanoic acid. In general efaproxiral sodium is administered as a physiologically acceptable salt, such as the monosodium salt; that is, X+ is Na+. Efaproxiral sodium induces allosteric modification of hemoglobin, such that its binding affinity for oxygen is decreased, resulting in increased oxygen distribution to tissues by erythrocytes.
(§2) Plasma and red blood cell (RBC) drug concentration were assayed on 2 days during the course of efaproxiral sodium administration: WBRT day 1 (end-infusion) and on 1 single day between WBRT days 6 and 10 (pre-infusion and end-infusion assays). Regression analysis was used to explore the relationship between trough and peak concentrations and continuous clinical covariates (eg, age, serum albumin, hematocrit, serum creatinine, etc). […] A dose of efaproxiral sodium was considered predicatably therapeutic if it achieved a sufficient RBC concentration (>483 μg/ml), and corresponded to a predicted p50 shift of 10 mmHg.

[3] = Plasma and red blood cell (RBC) drug concentration; format: in vivo, human
Experimental: as §2

[4] = tested on: patients with brain metastases; assay: Quality of life: Karnofsky Performance Status (KPS); format: in vivo, human
Experimental: as §1

Cc1cc(C)cc(NC(=O)Cc2ccc(OC(C)(C)C(=O)O)cc2)c1 [efaproxiral sodium, 2-[4-(((3,5-dimethylanilino)carbonyl)methyl)phenoxy]-2-methylpropionic acid]
Grade 4 hypoxemia ([1]; in vivo): no Grade 4 hypoxemia was reported | severity of the majority of treatment-emergent adverse events ([1]; in vivo): Grade 1 or 2 | duration of supplemental oxygen required after completion of WBRT ([1]; majority of doses, patients with brain metastases from breast cancer): one hour or less | Grade 3 hypoxemia, patients reporting ([1]; most commonly reported Grade 3 adverse event): 11% | Grade 4 disease progression, patients reporting ([1]; most commonly reported Grade 4 adverse event): 6% | patients with stable or improving SQ scores, (%) ([2]; 1 month): (42) % | patients with stable or improving SQ scores, (%) ([2]; 3 months): (23) % | patients with stable or improving SQ scores, (%) ([2]; 6 months): (16) % | patients with stable or improving SQ scores, (%) ([2]; 12 months): (9) % | percentage of patients with stable or improving SQ scores over time versus Control ([2]; χ2=3.4675, p=0.0626): trend toward a higher percentage | predicted p50 shift (hemoglobin): 10 mmHg | drug accumulation in RBCs ([3]; WBRT week 2 preinfusion concentrations): No clinically relevant drug accumulation | concentrations in RBCs, higher body weight versus low weight patients ([3]; at a given dose): higher | concentrations in RBCs, breast primary versus NSCLC and other primary patients ([3]; in vivo): higher | change of concentrations in RBCs with dose ([3]; patients dosed at 75 or 100 mg/kg): proportional increase | patients with stable or improving KPS scores, (%) ([4]; 1 month): (44) % | patients with stable or improving KPS scores, (%) ([4]; 3 months): (24) % | patients with stable or improving KPS scores, (%) ([4]; 6 months): (18) % | patients with stable or improving KPS scores, (%) ([4]; 12 months): (7) % | distribution of KPS score categories between treatment groups ([4]; breast primary, 6 months and 1 year (p=0.0046 and p=0.0070)): statistically significant difference | percentage of patients with stable or improving KPS scores over time versus Control ([4]; χ2=9.0096, p=0.0027): highly statistically significant
